Data reported in ChEMBL document CHEMBL1201862, “PubChem BioAssay data set” (2004).
Active and inactive are the calls of the source.

Tests used:
[1] = tested on: CHO-K1; assay: (§1) Counterscreen for antagonists of the orexin 1 receptor (OX1R; HCRTR1): Homogeneous time resolved fluorescence (HTRF)-based cell-based dose response assay to identify antagonists of the parental CHO-K1 cell line. [Related pubchem assays (depositor defined):AID434989, AID435008, AID463079, AID485270, AID492963, AID492964, AID492965, AID493232, AID504699, AID504701]; type: functional; settings: Cricetulus griseus
[2] = as §1, with “Fluorescence-based” for “Homogeneous time resolved fluorescence (HTRF)-based”, “cell-based high throughput” for “cell-based”, “CHO” for “CHO-K1”; type: functional
[3] = target: T1, Orexin/Hypocretin receptor type 1 (Homo sapiens, UniProt O43613); assay: Homogeneous Time Resolved Fluorescence (HTRF)-based cell-based high throughput dose response assay for antagonists of the orexin 1 receptor (OX1R; HCRTR1). [Related pubchem assays (depositor defined):AID434989, AID435008, AID463079, AID485270, AID492963, AID492964, AID492965, AID493232, AID504717, AID504718]; type: functional
T1 sequence (O43613 whole entry): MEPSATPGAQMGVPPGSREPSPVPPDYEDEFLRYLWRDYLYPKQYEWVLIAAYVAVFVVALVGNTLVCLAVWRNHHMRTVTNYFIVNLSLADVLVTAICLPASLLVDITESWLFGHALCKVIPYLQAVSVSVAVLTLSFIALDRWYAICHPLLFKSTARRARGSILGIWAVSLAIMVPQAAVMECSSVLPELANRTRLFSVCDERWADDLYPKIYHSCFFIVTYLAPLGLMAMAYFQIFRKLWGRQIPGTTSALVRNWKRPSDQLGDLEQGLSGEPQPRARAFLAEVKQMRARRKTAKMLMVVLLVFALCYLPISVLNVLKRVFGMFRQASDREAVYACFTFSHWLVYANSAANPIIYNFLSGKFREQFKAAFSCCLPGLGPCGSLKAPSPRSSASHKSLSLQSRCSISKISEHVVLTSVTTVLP

[4] = target: T1, Orexin/Hypocretin receptor type 1; assay: Fluorescence-based cell-based high throughput dose response assay for antagonists of the orexin 1 receptor (OX1R; HCRTR1). [Related pubchem assays (depositor defined):AID434989, AID435008, AID463079, AID485270, AID492963, AID492964, AID492965, AID493232, AID504717, AID504718]; type: functional
[5] = target: T2, Orexin receptor type 2 (Homo sapiens, UniProt O43614); assay: Counterscreen assay for antagonists of the orexin 1 receptor (OX1R; HCRTR1): Fluorescence-based cell-based dose response assay for antagonists of the orexin 2 receptor (OX2R; HCRTR2), run by assay provider.; type: functional
T2 sequence (O43614 whole entry): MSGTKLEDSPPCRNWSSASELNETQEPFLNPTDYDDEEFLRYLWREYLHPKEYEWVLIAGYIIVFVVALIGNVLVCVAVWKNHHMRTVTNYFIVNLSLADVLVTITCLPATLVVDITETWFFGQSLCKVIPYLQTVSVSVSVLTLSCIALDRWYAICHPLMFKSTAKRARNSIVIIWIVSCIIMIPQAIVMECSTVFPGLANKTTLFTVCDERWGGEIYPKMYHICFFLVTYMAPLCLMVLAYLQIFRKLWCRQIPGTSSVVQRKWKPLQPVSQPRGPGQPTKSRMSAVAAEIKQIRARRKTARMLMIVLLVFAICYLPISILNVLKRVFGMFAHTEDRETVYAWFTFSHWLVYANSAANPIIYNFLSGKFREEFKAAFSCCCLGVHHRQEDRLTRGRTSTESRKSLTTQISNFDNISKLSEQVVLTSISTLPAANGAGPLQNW

[6] = target: T2, Orexin receptor type 2; assay: Counterscreen assay for antagonists of the orexin 1 receptor (OX1R; HCRTR1): Homogeneous Time Resolved Fluorescence (HTRF)-based cell-based dose response assay for antagonists of the orexin 2 receptor (OX2R; HCRTR2), run by assay provider.; type: functional
[7] = inhibitors of intracellular T. cruzi replication, confirmation, NIH3T3 host cells, beta-gal luminescence (AID 2044); type: functional, cell-based;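 also: intracellular parasites grown in NIH/3T3 mouse fibroblasts as host cells; luminescent beta-galactosidase reporter signal from transgenic T. cruzi replicating inside host cells; inhibitors lower the luminescence signal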
[8] = microbe, parasite or virus in culture; type: functional; settings: Mycobacterium tuberculosis
[9] = cytotoxicity toward NIH3T3 fibroblasts, dose response, counter-screen, cell-based, ATP luminescence, mouse fibroblasts (AID 2010); type: functional;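 also: cells exposed to compound for about 90 hours before reading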
[10] = target: T3, Replicative DNA helicase DnaB (Mycobacterium tuberculosis, UniProt P9WMR3); assay: DnaB intein splicing inhibitors, dose response, biochemical, cell-free fluorescence (AID 449749); type: functional
T3 sequence (P9WMR3 whole entry): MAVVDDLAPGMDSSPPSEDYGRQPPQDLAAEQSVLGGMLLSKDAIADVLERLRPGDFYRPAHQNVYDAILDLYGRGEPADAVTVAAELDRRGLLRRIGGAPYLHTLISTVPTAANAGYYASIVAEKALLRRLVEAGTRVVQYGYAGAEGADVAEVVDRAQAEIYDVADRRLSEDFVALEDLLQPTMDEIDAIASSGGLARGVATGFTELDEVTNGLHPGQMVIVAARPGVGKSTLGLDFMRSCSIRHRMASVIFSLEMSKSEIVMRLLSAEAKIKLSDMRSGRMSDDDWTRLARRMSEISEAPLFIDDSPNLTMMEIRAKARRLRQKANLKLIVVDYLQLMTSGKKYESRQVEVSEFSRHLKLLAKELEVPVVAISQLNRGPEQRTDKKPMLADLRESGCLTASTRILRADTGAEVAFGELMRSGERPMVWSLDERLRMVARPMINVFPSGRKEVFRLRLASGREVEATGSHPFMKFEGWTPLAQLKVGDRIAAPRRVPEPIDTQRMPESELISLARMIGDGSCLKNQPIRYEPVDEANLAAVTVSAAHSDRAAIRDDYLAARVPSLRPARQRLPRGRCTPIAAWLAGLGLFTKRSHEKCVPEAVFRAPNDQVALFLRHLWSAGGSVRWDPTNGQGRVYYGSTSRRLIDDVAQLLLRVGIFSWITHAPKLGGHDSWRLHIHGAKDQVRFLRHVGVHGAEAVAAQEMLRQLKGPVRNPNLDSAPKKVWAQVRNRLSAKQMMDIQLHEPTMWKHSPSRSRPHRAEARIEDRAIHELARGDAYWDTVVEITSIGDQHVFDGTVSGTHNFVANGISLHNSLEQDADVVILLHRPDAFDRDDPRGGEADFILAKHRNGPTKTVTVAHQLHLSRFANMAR

[11] = tested on: Vero; assay: Vero cell cytotoxicity, cytotoxicity control for flavivirus capping enzyme inhibitors (AID 588742); type: functional; settings: Chlorocebus sabaeus
[12] = target: T4, Protein RecA (Mycobacterium tuberculosis, UniProt P9WHJ3); assay: Fluorescence Cell-Free Homogeneous Dose Retest to Identify Inhibitors of RecA-Intein Splicing Activity. [Related pubchem assays (depositor defined):AID2097, AID2223, AID489010, AID492950]; type: functional
T4 sequence (P9WHJ3 whole entry): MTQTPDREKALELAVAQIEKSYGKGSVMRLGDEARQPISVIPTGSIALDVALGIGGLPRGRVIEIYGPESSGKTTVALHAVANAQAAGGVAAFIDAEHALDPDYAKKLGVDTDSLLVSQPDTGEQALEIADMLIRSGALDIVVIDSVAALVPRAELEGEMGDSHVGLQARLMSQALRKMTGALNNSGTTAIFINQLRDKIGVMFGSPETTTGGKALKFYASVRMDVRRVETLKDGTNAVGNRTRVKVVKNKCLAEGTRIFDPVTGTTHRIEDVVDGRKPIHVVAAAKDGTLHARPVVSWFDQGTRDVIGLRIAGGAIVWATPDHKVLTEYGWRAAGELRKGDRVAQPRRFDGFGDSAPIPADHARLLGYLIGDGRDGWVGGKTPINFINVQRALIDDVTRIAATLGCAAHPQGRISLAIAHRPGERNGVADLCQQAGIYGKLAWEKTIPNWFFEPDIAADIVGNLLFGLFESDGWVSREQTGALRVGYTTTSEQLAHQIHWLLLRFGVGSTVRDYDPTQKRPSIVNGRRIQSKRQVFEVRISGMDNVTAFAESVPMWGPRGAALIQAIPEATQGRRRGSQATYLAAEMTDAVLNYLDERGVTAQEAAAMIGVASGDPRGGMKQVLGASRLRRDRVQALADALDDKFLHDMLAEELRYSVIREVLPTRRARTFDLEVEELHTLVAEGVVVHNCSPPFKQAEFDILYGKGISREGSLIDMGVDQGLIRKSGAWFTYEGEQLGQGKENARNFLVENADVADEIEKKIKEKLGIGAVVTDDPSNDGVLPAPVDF

[13] = target: Genome polyprotein (dengue virus type 2, UniProt P29990); assay: Dengue-2 NS5 methyltransferase inhibitors, primary screen, biochemical, confirmation dose response (AID 588689); type: functional
[14] = target: Estrogen receptor beta (Homo sapiens, UniProt Q92731);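 also: recombinant ER-beta bound to coactivator SRC1 peptide in presence of estradiol agonist; inhibitors block coactivator peptide binding and lower the FRET signal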
[15] = target: T5, Insulin-degrading enzyme (Homo sapiens, UniProt P14735); assay: activators of recombinant IDE enzyme, dose response, counter-screen for IDE activator project, biochemical, fluorescence polarization (AID 588681)
T5 sequence (P14735 whole entry): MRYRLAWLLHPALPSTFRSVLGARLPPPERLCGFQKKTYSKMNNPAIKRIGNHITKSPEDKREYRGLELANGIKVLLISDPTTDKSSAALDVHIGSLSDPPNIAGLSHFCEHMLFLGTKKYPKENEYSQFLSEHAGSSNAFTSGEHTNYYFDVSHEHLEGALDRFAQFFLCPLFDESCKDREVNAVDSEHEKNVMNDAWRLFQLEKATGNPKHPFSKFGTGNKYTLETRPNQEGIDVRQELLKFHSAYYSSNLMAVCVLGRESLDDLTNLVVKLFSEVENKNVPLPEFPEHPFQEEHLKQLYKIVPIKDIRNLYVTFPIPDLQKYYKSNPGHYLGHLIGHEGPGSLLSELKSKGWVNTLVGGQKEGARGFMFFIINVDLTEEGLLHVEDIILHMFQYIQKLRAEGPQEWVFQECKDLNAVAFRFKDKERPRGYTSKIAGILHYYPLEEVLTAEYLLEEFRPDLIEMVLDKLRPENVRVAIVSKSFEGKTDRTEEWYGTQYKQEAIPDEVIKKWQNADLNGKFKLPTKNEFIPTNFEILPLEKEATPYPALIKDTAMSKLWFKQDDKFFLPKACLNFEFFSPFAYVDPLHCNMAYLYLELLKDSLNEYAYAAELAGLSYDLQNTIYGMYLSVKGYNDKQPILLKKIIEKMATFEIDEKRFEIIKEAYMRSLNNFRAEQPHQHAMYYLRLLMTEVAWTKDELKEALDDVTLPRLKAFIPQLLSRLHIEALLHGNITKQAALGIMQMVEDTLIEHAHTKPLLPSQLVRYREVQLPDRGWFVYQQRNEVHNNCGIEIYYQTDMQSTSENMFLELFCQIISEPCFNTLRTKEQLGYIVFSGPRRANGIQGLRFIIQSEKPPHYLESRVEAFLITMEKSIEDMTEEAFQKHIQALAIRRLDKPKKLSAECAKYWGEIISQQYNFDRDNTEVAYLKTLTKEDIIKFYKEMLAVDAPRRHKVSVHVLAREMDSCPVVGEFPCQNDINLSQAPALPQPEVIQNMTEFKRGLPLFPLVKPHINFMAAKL

[16] = target: T5, Insulin-degrading enzyme; assay: activators of endogenous IDE in HEK cells, dose response, cell-based, fluorescence polarization (AID 588439); type: functional
[17] = tested on: HEK293; assay: HEK cell cytotoxicity by LDH release, dose response, cytotoxicity control for IDE activator project, fluorescence, HEK cells (AID 588440); type: functional, cell-based; settings: Homo sapiens;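 also: cytotoxicity by LDH release measuring loss of membrane integrity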
[18] = tested on: HEK293; assay: optical interference in Abeta FP readout, dose response, artefact control for IDE activator project, biochemical, fluorescence polarization (AID 588442); type: functional, cell-based; settings: Homo sapiens
[19] = target: Melanocortin receptor 4 (Homo sapiens, UniProt P32245); assay: MC4R antagonist potency on cAMP, dose response, cell-based, TR-FRET, biased antagonists (AID 602298); type: functional;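 also: antagonist potency against agonist-stimulated cAMP production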
[20] = nonselective inhibitors of cellular cAMP signaling, dose response, counter-screen for MC4R biased antagonist project, cell-based, TR-FRET cAMP detection (AID 602305); type: functional;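 also: U2OS cells stimulated with forskolin near its EC80 as the cAMP inducer; potency is for inhibition of forskolin-stimulated cAMP signaling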

Sequence of Estrogen receptor beta (Q92731 whole entry): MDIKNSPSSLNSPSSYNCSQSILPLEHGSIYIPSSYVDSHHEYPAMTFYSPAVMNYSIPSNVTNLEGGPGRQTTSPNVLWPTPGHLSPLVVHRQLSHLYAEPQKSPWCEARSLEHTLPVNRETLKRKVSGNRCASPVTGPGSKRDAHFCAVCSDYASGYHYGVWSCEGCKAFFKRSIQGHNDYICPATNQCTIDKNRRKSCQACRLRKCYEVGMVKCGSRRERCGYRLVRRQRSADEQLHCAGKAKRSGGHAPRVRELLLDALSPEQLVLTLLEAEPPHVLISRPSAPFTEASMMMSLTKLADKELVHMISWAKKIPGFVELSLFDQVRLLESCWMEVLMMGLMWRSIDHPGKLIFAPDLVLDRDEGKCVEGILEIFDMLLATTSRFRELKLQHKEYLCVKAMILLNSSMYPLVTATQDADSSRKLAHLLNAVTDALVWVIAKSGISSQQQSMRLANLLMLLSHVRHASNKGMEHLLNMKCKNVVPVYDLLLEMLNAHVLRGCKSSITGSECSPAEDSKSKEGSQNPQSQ
Sequence of Melanocortin receptor 4 (P32245 whole entry): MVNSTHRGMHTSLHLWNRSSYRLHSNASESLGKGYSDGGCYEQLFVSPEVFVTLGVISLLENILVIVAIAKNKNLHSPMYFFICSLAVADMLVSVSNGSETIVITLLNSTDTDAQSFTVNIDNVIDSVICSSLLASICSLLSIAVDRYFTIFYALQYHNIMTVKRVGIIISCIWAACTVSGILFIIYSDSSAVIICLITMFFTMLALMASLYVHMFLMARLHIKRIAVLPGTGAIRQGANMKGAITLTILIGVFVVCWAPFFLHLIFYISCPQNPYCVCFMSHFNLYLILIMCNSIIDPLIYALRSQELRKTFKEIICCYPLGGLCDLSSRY
Sequence of Genome polyprotein (P29990 2492-3391 limits assumed): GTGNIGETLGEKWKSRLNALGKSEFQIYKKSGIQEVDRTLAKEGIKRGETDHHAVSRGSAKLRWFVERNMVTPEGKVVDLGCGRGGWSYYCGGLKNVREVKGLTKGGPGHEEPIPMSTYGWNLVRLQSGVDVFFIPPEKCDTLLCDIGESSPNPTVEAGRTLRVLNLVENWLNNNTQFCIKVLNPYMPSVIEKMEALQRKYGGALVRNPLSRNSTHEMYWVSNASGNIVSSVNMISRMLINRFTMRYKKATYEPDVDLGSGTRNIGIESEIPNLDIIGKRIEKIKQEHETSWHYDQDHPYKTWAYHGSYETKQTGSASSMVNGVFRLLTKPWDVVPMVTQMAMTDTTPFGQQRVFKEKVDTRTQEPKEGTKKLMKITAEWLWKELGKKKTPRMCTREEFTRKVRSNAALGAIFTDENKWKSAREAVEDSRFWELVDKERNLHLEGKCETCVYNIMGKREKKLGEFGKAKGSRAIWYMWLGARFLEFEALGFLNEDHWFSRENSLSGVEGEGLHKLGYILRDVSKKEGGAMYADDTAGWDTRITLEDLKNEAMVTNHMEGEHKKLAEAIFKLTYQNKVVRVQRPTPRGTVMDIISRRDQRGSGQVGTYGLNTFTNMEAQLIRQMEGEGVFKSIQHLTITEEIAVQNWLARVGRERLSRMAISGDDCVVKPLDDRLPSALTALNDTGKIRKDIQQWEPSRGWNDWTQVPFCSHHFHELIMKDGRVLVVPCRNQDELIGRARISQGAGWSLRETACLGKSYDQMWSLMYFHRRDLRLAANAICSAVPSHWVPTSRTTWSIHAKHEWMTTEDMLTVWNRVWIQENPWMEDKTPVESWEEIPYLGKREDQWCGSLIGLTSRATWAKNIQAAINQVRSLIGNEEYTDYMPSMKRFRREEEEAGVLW

Cc1cc(NC(=O)CCC(=O)N(Cc2cccs2)C(C(=O)NC2CCCC2)c2ccccc2)no1 (centres undefined)
IC50 [1]: > 66.2 µM (inactive)
IC50 [2]: > 49.8 µM (inactive)
IC50 [3]: 0.315 µM (active)
IC50 [4]: 12.7 µM (inactive)
IC50 [5]: 42.4 µM (inactive)
IC50 [6]: > 50 µM (inactive)

O=[N+]([O-])c1cc([N+](=O)[O-])c2c(Nc3ccccc3)n(-c3ccccc3)[n+]([O-])c2c1
EC50 [7]: 0.313 µM (active)
CC50 [8]: 29.7 µM (active)
EC50 [9]: > 60 µM (not active)
AC50 [10]: 5.84 µM (active)
CC50 [11]: 38.9 µM (active)
EC50 [12]: 1.97 µM (active)
IC50 [13]: 30.9 µM (active)

C=CCNc1nc(N(c2ccccc2)c2ccccc2)nc(-n2ccnc2)n1
IC50 [1]: > 66.2 µM (inactive)
IC50 [2]: > 49.8 µM (inactive)
IC50 [3]: 6.47 µM (active)
IC50 [4]: > 49.8 µM (inactive)
IC50 [5]: > 88.8 µM (inactive)
IC50 [6]: > 50 µM (inactive)

CC(=O)Nc1cc2c(cc1C(=O)c1ccccc1)OCCO2
IC50 [14]: > 50 µM (not active)
EC50 [15]: > 54.7 µM (inactive)
EC50 [16]: > 54.7 µM (inactive)
IC50 [17]: > 89.2 µM (inactive)
EC50 [18]: > 54.7 µM (inactive)

Cc1ccc(S(=O)(=O)N(C)CC(=O)OCC(=O)NC(=O)NC(C)C)cc1
IC50 [19]: > 64.6 µM (inactive)
IC50 [20]: > 64.6 µM (inactive)

COc1ccc(CNc2nc3ccccc3n2CCN2CCOCC2)cc1
EC50 [15]: > 54.7 µM (inactive)
EC50 [16]: > 54.7 µM (inactive)
IC50 [17]: > 89.1 µM (inactive)
EC50 [18]: > 55.9 µM (inactive)

O=C(c1cc([N+](=O)[O-])ccc1N1CCOCC1)N1CCN(c2ccc([N+](=O)[O-])cc2)CC1
EC50 [15]: 3.64 µM (active)
EC50 [16]: 3.16 µM (active)
IC50 [17]: > 89.2 µM (inactive)
EC50 [18]: 1.09 µM (active)
